Patent US9440957B2, “Compounds and compositions for modulating EGFR Activity” (Novartis AG, priority 2012, dated 2016)
pIC50: −log10 of the molar value. Like-named read-outs stand apart in the source and are kept apart here.

Tests used:
[1] = target: T1, EGFR(L858R/T790M) (Homo sapiens, UniProt P00533, L858R/T790M); assay: EGFR biochemical assay (HTRF), IC50 determinations
T1 construct: purchased from Carna (GST-a.a. 669-1210)
Procedure, shortened: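 HTRF kinase reaction with biotin-TK peptide at room temperature, quenched with EDTA at 60 min and detected with PT66K/SAXL after 1 h. Without preincubation, enzyme starts the reaction with compound, ATP and peptide present. With preincubation, compound, enzyme and peptide sit at room temperature for a set time before ATP is added.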

[2] = target: human EGFR L858R (NIH/3T3 cells) (Homo sapiens, UniProt P00533, L858R); assay: EGFR target modulation in engineered NIH/3T3 cell lines (phospho-EGFR Y1068 AlphaLISA), EGFR L858R; format: cell-based; details: engineered NIH/3T3 cells, read-out: NIH3T3 IC50 (μM) EGFR (L858R)
Procedure, shortened: (§1)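 Read-out is phospho-Y1068 AlphaLISA on cell lysates, with anti-total EGFR at 1 nM final equilibrated 1 h at room temperature. Cells were dosed 3 h with a 12-point 1:3 series starting from a 10 μM stock. Only the WT line received 50 ng/ml EGF for 5 min.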

[3] = target: HCC827 (Del E746-A750) (Homo sapiens, UniProt P00533, DEL746-750); assay: EGFR target modulation in HCC827 cell line (phospho-EGFR Y1173 ELISA); format: cell-based
Procedure: EGFR Target Modulation in H1975, H3255 and HCC827 Cell Lines Tissue Culture. Cells were maintained in 10% FBS/RPMI supplemented with 100 μg/ml Penicillin/Streptomycin (Hyclone #SH30236.01). […] The cells were allowed to incubate overnight in a 37° C., 5% CO2 humidified tissue culture incubator. […] The serial diluted compounds were transferred to the plate containing cells by using a 50 nl Pin Head device (Perkin Elmer) and the cells were placed back in the incubator for 3 hours. Phospho-EGFR ([…]) Target Modulation Assay. The media was reduced to 20 ul using a Bio-Tek ELx 405 SelectTM plate washer. […] The plates were shaken at 4° C. for 20 minutes. An aliquot of 25 ul from each well was transferred to pEGFR(Y1173) ELISA plates for analysis. Phospho-EGFR ([…]) ELISA. Solid white high-binding ELISA plates (Greiner #781074) were coated with 5 ug/ml anti-EGFR capture antibody (R&D Systems #AF231) overnight in 50 mM carbonate/bicarbonate pH 9.5 buffer. Plates were blocked with 1% BSA (Sigma #A7030) in PBS for 1 hour at room temperature. Wash steps were carried out with a Bio-Tek ELx405 SelectTM using 4 cycles of 100 ul TBS-T (20 mM Tris, 137 mM NaCl, 0.05% Tween-20) per well. […] Lysis was allowed to occur for 20 minutes on ice. A 25 ul aliquot was added to each well of the blocked ELISA plate and incubated overnight at 4° C. with gentle shaking. […] After washing, 1:2,000 anti-rabbit-HRP (Cell Signaling #7074) in 0.2% BSA/TBS-T was added and incubated for 1 hour at room temperature. Chemiluminescent detection was carried out with SuperSignal ELISA Pico substrate (ThermoScientific #37069). Signal was read on EnVision plate reader using built-in UltraLUM setting. Data Analysis. Control cells treated with EGF were set to 100% maximum response. […] With these parameters, the IC50's for each compound in each cell line was calculated using non-linear curve fitting analysis.

[4] = target: H3255 (EGFR L858R) (Homo sapiens, UniProt P00533, L858R); assay: EGFR target modulation in H3255 cell line (phospho-EGFR Y1173 ELISA); format: cell-based
Procedure, shortened: (§2)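 3 h compound exposure of cells in 10% FBS/RPMI, 37 °C; lysis on ice 20 min; lysate captured overnight at 4 °C on anti-EGFR-coated plates; anti-rabbit-HRP, chemiluminescence.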

[5] = target: human EGFR WT (NIH/3T3 cells, EGF-induced) (Homo sapiens, UniProt P00533); assay: EGFR target modulation in engineered NIH/3T3 cell lines (phospho-EGFR Y1068 AlphaLISA), EGFR WT; format: cell-based; details: engineered NIH/3T3 cells, read-out: NIH3T3 IC50 (μM) EGFR (WT)
Procedure, shortened: as §1

[6] = target: H1975 (EGFR L858/T790M) (Homo sapiens, UniProt P00533, L858R/T790M); assay: EGFR target modulation in H1975 cell line (phospho-EGFR Y1173 ELISA); format: cell-based
Procedure, shortened: as §2

[7] = target: HEKn (EGFR WT) (Homo sapiens, UniProt P00533); assay: EGFR target modulation in HEKn (EGFR-WT) cell line (phospho-EGFR Y1173 ELISA); format: cell-based; details: value outside parentheses
Procedure, shortened: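 Primary neonatal human keratinocytes (EGFR WT) were exposed to serially diluted compounds for 3 h, then lysed on ice. Phospho-EGFR Y1173 was measured by chemiluminescent sandwich ELISA using anti-EGFR capture.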

[8] = target: human EGFR L858R/T790M (NIH/3T3 cells) (Homo sapiens, UniProt P00533, L858R/T790M); assay: EGFR target modulation in engineered NIH/3T3 cell lines (phospho-EGFR Y1068 AlphaLISA), EGFR L858R/T790M; format: cell-based; details: engineered NIH/3T3 cells, read-out: NIH3T3 IC50 (μM) EGFR (L858R/T790M)
Procedure, shortened: as §1

[9] = EGFR (L858R/T790M) with 90 min pre-incubation, read-out: IC50 (μM) Column B
[10] = EGFR (L858R/T790M) with no pre-incubation, read-out: IC50 (μM) Column A

H1975 (EGFR L858/T790M), sequence (P00533 25-1210 T790M/L858R): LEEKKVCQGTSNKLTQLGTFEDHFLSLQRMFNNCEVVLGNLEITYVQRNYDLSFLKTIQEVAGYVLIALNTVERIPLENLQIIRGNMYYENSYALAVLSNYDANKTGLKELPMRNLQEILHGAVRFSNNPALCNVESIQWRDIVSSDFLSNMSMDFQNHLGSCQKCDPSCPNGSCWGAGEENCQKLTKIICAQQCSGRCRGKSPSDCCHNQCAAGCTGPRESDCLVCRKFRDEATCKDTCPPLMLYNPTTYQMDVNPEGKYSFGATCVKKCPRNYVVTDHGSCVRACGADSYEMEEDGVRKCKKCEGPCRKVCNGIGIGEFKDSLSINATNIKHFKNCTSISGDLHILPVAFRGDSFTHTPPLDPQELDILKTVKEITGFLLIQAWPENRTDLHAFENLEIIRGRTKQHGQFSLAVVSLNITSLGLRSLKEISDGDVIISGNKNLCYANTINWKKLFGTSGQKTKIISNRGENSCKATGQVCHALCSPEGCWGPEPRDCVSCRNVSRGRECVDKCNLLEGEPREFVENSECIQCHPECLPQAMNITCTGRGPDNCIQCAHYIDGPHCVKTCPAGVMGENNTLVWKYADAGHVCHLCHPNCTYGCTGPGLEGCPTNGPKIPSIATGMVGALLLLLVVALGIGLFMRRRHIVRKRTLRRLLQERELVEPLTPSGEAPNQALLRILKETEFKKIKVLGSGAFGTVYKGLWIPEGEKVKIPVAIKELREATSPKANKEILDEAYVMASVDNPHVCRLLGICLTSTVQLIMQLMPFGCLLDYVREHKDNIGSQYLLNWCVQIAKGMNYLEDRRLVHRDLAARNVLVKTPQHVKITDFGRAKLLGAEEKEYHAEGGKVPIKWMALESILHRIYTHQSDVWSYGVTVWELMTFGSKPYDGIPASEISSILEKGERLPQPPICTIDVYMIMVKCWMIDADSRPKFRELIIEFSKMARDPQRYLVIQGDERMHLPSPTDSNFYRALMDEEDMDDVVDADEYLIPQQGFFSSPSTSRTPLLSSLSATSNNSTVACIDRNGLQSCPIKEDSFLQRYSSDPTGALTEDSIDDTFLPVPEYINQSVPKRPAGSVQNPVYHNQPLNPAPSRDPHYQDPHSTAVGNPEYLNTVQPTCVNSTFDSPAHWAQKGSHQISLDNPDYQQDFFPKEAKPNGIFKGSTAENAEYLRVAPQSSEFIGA
human EGFR L858R/T790M (NIH/3T3 cells), sequence (P00533 25-1210 T790M/L858R): as above
human EGFR L858R (NIH/3T3 cells), sequence (P00533 25-1210 L858R): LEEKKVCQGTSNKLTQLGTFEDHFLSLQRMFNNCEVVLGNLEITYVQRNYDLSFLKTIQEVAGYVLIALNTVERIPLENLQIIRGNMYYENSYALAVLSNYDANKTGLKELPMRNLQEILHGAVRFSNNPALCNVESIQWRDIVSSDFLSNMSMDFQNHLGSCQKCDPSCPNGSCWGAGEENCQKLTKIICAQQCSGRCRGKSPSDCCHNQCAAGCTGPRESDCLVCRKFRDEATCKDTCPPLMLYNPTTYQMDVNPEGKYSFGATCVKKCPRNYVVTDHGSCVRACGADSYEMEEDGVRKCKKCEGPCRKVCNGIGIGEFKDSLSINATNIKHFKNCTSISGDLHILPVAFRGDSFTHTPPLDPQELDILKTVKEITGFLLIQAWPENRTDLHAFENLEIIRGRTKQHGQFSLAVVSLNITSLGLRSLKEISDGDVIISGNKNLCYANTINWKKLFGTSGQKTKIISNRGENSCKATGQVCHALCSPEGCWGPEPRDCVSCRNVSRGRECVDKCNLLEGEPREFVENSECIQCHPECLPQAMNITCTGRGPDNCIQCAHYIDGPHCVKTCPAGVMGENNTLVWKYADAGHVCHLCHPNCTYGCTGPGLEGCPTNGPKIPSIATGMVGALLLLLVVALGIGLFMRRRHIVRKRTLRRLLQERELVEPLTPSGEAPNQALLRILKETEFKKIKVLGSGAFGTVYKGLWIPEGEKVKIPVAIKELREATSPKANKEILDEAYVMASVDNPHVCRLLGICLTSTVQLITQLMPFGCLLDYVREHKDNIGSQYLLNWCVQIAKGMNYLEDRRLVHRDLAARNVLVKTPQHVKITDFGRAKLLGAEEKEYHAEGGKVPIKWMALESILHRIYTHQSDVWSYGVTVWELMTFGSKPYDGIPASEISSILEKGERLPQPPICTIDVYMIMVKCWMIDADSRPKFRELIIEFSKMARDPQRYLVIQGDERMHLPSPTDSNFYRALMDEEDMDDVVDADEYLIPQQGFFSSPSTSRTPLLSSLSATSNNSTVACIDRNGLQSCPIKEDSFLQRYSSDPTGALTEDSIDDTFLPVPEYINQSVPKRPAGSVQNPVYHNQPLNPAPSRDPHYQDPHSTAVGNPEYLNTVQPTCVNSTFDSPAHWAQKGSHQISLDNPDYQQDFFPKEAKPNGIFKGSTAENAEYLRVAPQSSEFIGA
H3255 (EGFR L858R), sequence (P00533 25-1210 L858R): as above

SMILES | IC50 [1, 9] [µM] | IC50 [1, 10] [µM] | IC50 [2] [µM] | pIC50 [3] | pIC50 [4] | IC50 [5] [µM] | pIC50 [6] | pIC50 [7] | IC50 [8] [µM]
C=CC(=O)N1CCCCC(n2c(NC(=O)c3cccc(C(F)(F)F)c3)nc3cc(C)ccc32)C1 (stereo not shown) [Example 17-1] | < 0.001 | 0.012 | 0.081 | 7.85 | 7.48 | > 10 | 8.30 | 6.14 | 0.011
O=C(Nc1nc2cccc(Cl)c2n1[C@@H]1CCCCN(C(=O)/C=C/CN2CCCC2)C1)c1ccnnc1 [Example 3-8] | < 0.001 | 0.009 |  | 8.40 | 8.00 |  | 8.05 | 6.71 | 
Cc1cc(C(=O)Nc2nc3cccc(C)c3n2[C@@H]2CCCCN(C(=O)/C=C/CN3CCCC3)C2)ccn1 [Example 3-9] | < 0.001 | 0.008 |  | 8.30 | 7.92 |  | 8.15 | 6.23 | 
C/C=C/C(=O)N1CCCC[C@@H](n2c(NC(=O)c3ccnc(C)c3)nc3cc(CN4CC[C@@H](OC)C4)cc(C)c32)C1 [Example 17-163] | 0.005 | 0.07 |  | 7.96 | 7.29 |  | 7.37 | 5.90 | 
C=CC(=O)N1CCCC[C@@H](n2c(NC(=O)c3cc(C)nc(C)c3)nc3cc(CN4CC[C@@H](OC)C4)cc(C)c32)C1 [Example 17-157] | < 0.001 | 0.003 |  | 8.70 | 8.15 |  | 8.70 | 6.51 | 
C/C=C/C(=O)N1CCCC[C@@H](n2c(NC(=O)c3cc(C)nc(C)c3)nc3cc(CN4CC[C@H](OC)C4)cc(C)c32)C1 [Example 17-162] | 0.004 | 0.054 |  | 7.64 | 6.84 |  | 7.42 | 5.34 | 
COc1cccc2nc(NC(=O)c3ccnc(C)c3)n([C@@H]3CCCCN(C(=O)/C=C/CN(C)C)C3)c12 [Example 17-176] | < 0.001 | 0.018 |  | 8.40 | 7.70 |  | 7.85 | 6.06 | 
C=CC(=O)N1CCCC[C@@H](n2c(NC(=O)c3cc(C)nc(C)c3)nc3cc(CN4CC[C@H](OC)C4)cc(C)c32)C1 [Example 17-156] | < 0.001 | 0.001 |  | > 9.00 | 8.70 |  | > 9.00 | 6.89 | 
C=CC(=O)N1CCC[C@@H](n2c(NC(=O)c3cccc(C(F)(F)F)c3)nc3cc(C)ccc32)C1 [Example 17-105] |  |  | 0.149 | 6.68 | 6.61 | > 10 | 7.57 | < 5.00 | 0.012

Other lines, results leading:

IC50 [1, 9] [µM] | IC50 [1, 10] [µM] | IC50 [2] [µM] | pIC50 [3] | pIC50 [4] | IC50 [5] [µM] | pIC50 [6] | pIC50 [7] | IC50 [8] [µM] | SMILES
< 0.001 | 0.002 | 0.001 | > 9.00 | 8.70 | 0.037 | > 9.00 | 7.21 | 0.001 | C=CC(=O)N1CCCC[C@@H](n2c(NC(=O)c3ccnc(C)c3)nc3cc(CN4CC(F)(F)C4)cc(C)c32)C1 [Example 17-153]
< 0.001 | 0.007 | 0.006 | > 9.00 | 7.92 | 0.259 | 8.10 | 6.24 | 0.006 | CO[C@H]1CCN(C/C=C/C(=O)N2CCCC[C@@H](n3c(NC(=O)c4ccnc(C)c4)nc4cccc(Cl)c43)C2)C1 [Example 3-5]
< 0.001 | 0.001 | < 0.001 | > 9.00 | 9.00 | 0.014 | > 9.00 | 7.44 | 0.001 | C=CC(=O)N1CCCC[C@@H](n2c(NC(=O)c3ccnc(C)c3)nc3cc(CN4CCC(F)(F)C4)cc(C)c32)C1 [Example 17-151]
< 0.001 | 0.005 | 0.003 | > 9.00 | 8.15 | 0.058 | 8.22 | 6.49 | 0.005 | CO[C@@H]1CCN(C/C=C/C(=O)N2CCCC[C@@H](n3c(NC(=O)c4ccnc(C)c4)nc4cccc(Cl)c43)C2)C1 [Example 3-4]
